# Patent publication US10159249B2 (BAYER CROPSCIENCE AKTIENGESELLSCHAFT, priority 2013, dated 2018)
# Assays:
# Euphorbia heterophylla = assay: Field trial, weed efficacy, post applied; assay type: in vivo; settings: Atrazine 1000 g ai/ha; application at 5 leaf stage; assessment 14 days after application
# PfHPPDEvo40 = PfHPPDEvo40 (Pseudomonas sp., UniProt P80064, A172V/A339E/A53E/D148E/D45N/E105D/E287Q/E300V/E334P/F143Y/G286D/G335S/H150N/H254A/H63N/I158V/I187A/I249V/K92N/L18F/N24G/N280D/S245T/S257K/S301E/T205S/V65I); assay: Brown color assay, HPPD inhibitor tolerance of E. coli HPPD extracts; settings: extract titrated on 250 uM inhibitor; brown pigment formation
# Sequence of PfHPPDEvo40 (P80064 other isoform, or with tags, fused parts or gaps with the stated changes): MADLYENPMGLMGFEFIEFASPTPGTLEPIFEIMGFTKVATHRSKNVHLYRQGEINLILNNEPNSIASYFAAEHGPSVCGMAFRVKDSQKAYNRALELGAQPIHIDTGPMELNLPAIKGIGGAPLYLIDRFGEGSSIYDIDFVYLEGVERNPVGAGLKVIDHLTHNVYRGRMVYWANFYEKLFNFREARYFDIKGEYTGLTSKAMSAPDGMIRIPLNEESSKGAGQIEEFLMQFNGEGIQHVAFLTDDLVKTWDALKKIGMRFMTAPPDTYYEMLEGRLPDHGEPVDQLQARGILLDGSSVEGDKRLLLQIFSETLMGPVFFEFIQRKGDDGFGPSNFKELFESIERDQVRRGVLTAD
# Amaranthus retroflexus = settings: Glufosinate-ammonium 500 g ai/ha; application at 6 leaf stage; assessment 14 days after application
# [1] = test system: Ipomoea aristolochiaefolia; settings: Glyphosate 960 g ai/ha; application at 6 leaf stage; assessment 14 days after application
# Digitaria horizontalis = assay: Field trial, weed efficacy, post applied; assay type: in vivo; settings: application at 2 tillers, assessment 14 days after application
smiles,measurement,setting,value
"CCNc1nc(Cl)nc(NC(C)C)n1 [Atrazine, reference compound]",Efficacy (%) Euphorbia heterophylla,Euphorbia heterophylla,74%
"CS(=O)(=O)c1cc(C(F)(F)F)ccc1C(=O)C(C#N)C(=O)C1CC1 (stereo not shown) [DKN, diketonitrile]",tolerance of variant PfHPPDEvo40 to the inhibitor compared to PfHPPD336W,PfHPPDEvo40,improved tolerance
"CP(=O)(O)CCC(N)C(=O)O (stereo not shown) [Glufosinate-ammonium, reference compound]",Efficacy (%) Amaranthus retroflexus,Amaranthus retroflexus,33%
"O=C(O)CNCP(=O)(O)O [Glyphosate, reference compound]",Efficacy (%) Ipomoea aristolochiaefolia,[1],70%
CSc1nnc(C(C)(C)C)c(=O)n1N [Metribuzin],Efficacy (%) Digitaria horizontalis,Digitaria horizontalis; Metribuzin 240 g ai/ha,15%
same,Efficacy (%) Digitaria horizontalis,Digitaria horizontalis; Metribuzin 480 g ai/ha,35%
"CS(=O)(=O)c1ccc(C(=O)C2C(=O)CCCC2=O)c(Cl)c1COCC(F)(F)F [TBT, tembotrione]",tolerance of variant PfHPPDEvo40 to the inhibitor compared to PfHPPD336W,PfHPPDEvo40,improved tolerance
